The values below come from patent US6649797B2, “Compounds and methods of use to treat infectious diseases” (The Picower Institute for Medical Research, priority 1996, dated 2003).

For one assay, the system named is Plasmodium berghei NYU-2. The assay is described as follows: Four day suppression test in Plasmodium berghei infected mice. Conditions: 50 mg/kg i.p. once daily for four days, P≦0.01. In kind it is in vivo. The method, then: FIG. 9. The activity of CNI-0294 against Plasmodium berghei infected mice. Female ND4 Swiss Webster mice were infected with infected erythrocytes and then treated once daily, for four days, with 50 mg/kg CNI-0294, or with distilled water. Six hours after the last dose, thin blood smears were made from each of the animals and the parasitemia was determined. The bars represent the median parasitemia (n=4 for controls and n=5 for treated).
The antimalarial activity of CNI-0294 in vivo was assessed by infecting female ND4 Swiss Webster mice with 100 μl of Plasmodium berghei NYU-2 infected mouse erythrocytes (50% parasitemia) by intraperitoneal injection. The animals were subsequently injected intraperitoneally once per day on days 1-4 of the infection with 0.5 ml water or 0.5 ml of 50 mg/kg CNI-0294 in water. Four hours after the final injection, small blood samples were taken from the tail, and thin smears stained with Dif-Quick (Baxter, Miami, Fla.). The parasitemia of control and treated animals was enumerated by inspection of at least 1000 erythrocytes in each animal.

Assay [1] has as its system HIV-1 pre-integration complexes / karyopherin α. Kind of assay: Binding of HIV-1 pre-integration complexes to GST-karyopherin α. In kind it is biochemical. Conditions: for reduction of karyopherin α/HIV-1 binding: lysates of HIV-1RF infected H9 cells treated 2 hours, Phosphorimager. The method, then: Cytoplasmic lysates of H9 cells infected with HIV-1RF (upper panel) or HIV-like pseudovirions (bottom panel) were treated for 2 hours with various concentrations of CNI-H0294, and were then mixed with GST-karyopherin α immobilized on glutathione Sepharose beads. HIV-1 DNA or RNA that co-precipitated with karyopherin α was quantified as in A and B.
Cytoplasmic lysates prepared from H9 cells infected with HIV-1RF were treated with 10 μM CNI-H3094 (lane 1) or with 1 μM CNI-H0294 and 10 μM (lane 5), 5 μM (lane 4), 1 μM (lane 3), or no CNI-H3094 (lane 2). The amount of pre-integration complexes available for interaction with karyopherin α was quantified as in FIG. 10.
H9 cells were infected with equal amounts of wild-type HIV-1NLHX or with mutant HIV-1NLHX that lack Vpr (Vpr^−) or carry a mutation that inactivates the MA NLS (MA NLS^−). Infected cells were washed and incubated for 4 h. An aliquot of each sample was used to quantify the total HIV-1 DNA (FIG. 14A) and the rest was used to prepare cytoplasmic extracts. Extracts were incubated with 1 μM CNI-H0294 (FIG. 14B, lanes 2, 4, 6, 8) or were left untreated (lanes 1, 3, 5, 7). The amount of pre-integration complexes available for binding to karyopherin α was determined as in FIG. 10.
H9 cells were infected with HIV-1 or HIV-like pseudovirions (Haffar, et al., 1990, J. Virol., 64:2653-2659) at a multiplicity adjusted according to p24 content (50 ng p24 per 10^6 cells) The MA NLS^− virus contains substitutions of isoleucine residues for lysines in positions 26 and 27 of MA in an NLHX backbone (Westervelt., et al., 1992, J. Virol. 66:2577-2582), thus inactivating the NLS. The Vpr^− virus has the initiating ATG of the vpr gene changed to GTG, thus abolishing expression of this gene. The ΔMA NLS pseudovirions have leucine substituting for lysine in position 28 of MA. This mutation abrogates nuclear translocation of HIV-1 gag RNA in growth-arrested H9 cells infected with pseudovirions. After a 1 hour absorption, excess viruses or pseudovirions were washed away, and cells were incubated for an additional 2-3 hour period at 37° C. prior to analysis.
Cytoplasmic extracts were prepared by lysing cells in cold extraction buffer (10 mM KCl, 10 mM Tris-HCl [pH 7.6], 0.5 mM MgCl2, 1 μg/ml each of leupeptin and aprotinin, and 1 MM phenylmethylsulfonyl fluoride [PMSF]) by 20-30 strokes of a Dounce homogenizer under the control of phase-contrast microscopy. After removal of nuclei, cytoplasmic extract was cleared by centrifugation at 15,000 g for 10 min.
Cytoplasmic extracts prepared from HIV-1-or pseudovirion-infected H9 cells were adjusted to 0.14 M NaCl, 0.1% Tween 20 and precleared with glutathione-Sepharose beads for 30 min. at room temperature. Karyopherin α was expressed as a fusion protein with glutathione S-transferase (GST) which can bind glutathione beads in solution. GST-karyopherin α immobilized on Sepharose beads was then added (about 50 μg of immobilized karyopherin α per extract from 108 infected cells) and the mixture was incubated at room temperature for another 30 min. Beads were then pelleted by centrifugation and washed 3 times with PBS supplemented with 0.1% Tween 20, 1 μg/ml each of leupeptin and aprotinin, and 1 mM PMSF. HIV-1 DNA was isolated from the beads by SDS-proteinase K treatment with subsequent phenol-chloroform extraction, while pseudovirion gag RNA was isolated by RNazol (Biotecx Laboratories Inc.).

The target of assay [2] is T1, MA associated with the HIV-1 pre-integration complex (Human immunodeficiency virus type 1 group M subtype B, UniProt P05890+P05959).
T1 construct: MA is made from the Gag precursor and RT is made from the Gag-Pol precursor; endogenous in cells; host or cells: cytoplasmic extract of H9 cells infected with HIV-1RF
The assay is described as follows: Reaction of [14C]CNI-H0294 with MA in HIV-1 pre-integration complexes after borohydride reduction. The settings on record: 10 μM [14C]-CNI-H0294, borohydride reduction, HIV-1-infected cell extracts. In kind it is binding. The method, then:
Cytoplasmic extracts from HIV-1RF-infected H9 cells were treated with [^14C]CNI-H0294 (10 μM). After borohydride reduction the extracts were immunoprecipitated with anti-MA (αMA), anti-IN (αIN), or pre-immune serum (PI). […] Immunoprecipitated radioactivity was quantified in a scintillation counter.
Cytoplasmic lysates prepared from HIV-1-infected cells were treated with 10 μM of [^14C]-labeled CNI-H0294 (specific activity 5×10^4 cpm/nmol) in 1 ml extraction buffer adjusted to 0.14 M NaCl. Sodium borohydride was then added to a final concentration 10 mM and samples were incubated 1 hr at room temperature prior to immunoprecipitation to reduce double bonds of Schiff bases to an irreversible secondary amine. Immunoprecipitation was performed as described above, but beads were stringently washed three times with PBS supplemented with 0.1% SDS, 1% sodium deoxycholate, 1 μg/ml each of aprotinin and leupeptin, and 1 mM PMSF.
To discriminate between these two possibilities, cytoplasmic extracts of HIV-1-infected cells were treated with [^14C]-CNI-H0294 and then with sodium borohydride, to reduce the reversible Schiff bases hypothesized to form between the compound and the lysines of MA NLS and convert the attached drug molecules to irreversible adducts. […] Without borohydride treatment, no radioactivity was immunoprecipitated with MA.

As to `CC(=O)c1cc(Nc2cc(C)[n+](C)c(N)n2)cc(C(C)=O)c1` [CNI-0294, 2-Amino-4-(3,5-diacetylphenyl)amino-1,6-dimethylpyrimidinium chloride], in the assay on Plasmodium berghei NYU-2, the lowering of parasitemia was determined as 10 fold. Also, the “reduction of karyopherin α/HIV-1 binding” value in assay [1] (0.1 μM) came to 8 fold; in assay [1] (1 μM), 25 fold. Also, the “effect on binding of karyopherin α to complexes” value in assay [1] (1 μM, MA NLS^− complexes) was “had no effect”. Moreover, the “diminished binding of karyopherin α to complexes” value in assay [1] (1 μM, Vpr^− complexes) turned out to be 95%; in assay [1] (1 μM, wild-type (wt) HIV-1NLHX complexes), 95%. Besides, the “interaction of pre-integration complexes with karyopherin α” value in assay [1] (10 μM (FIG. 13A)) is given as “blocked the interaction”. Moreover, the “radioactivity immunoprecipitated by anti-MA serum” value in assay [2] was “a significant amount of radioactivity was immunoprecipitated by anti-MA serum”.
